What is called MIC is the smallest concentration in the dilution series that meets the test's criterion for growth inhibition.

The subject of test [1] is Clostridium difficile ATCCBAA-1382. The test can be described thus: in vitro anti-Clostridium difficile MIC, standard broth dilution method. Type of test: cell-based. To be noted: for MIC: Clostridium difficile ATCCBAA-1382; for anti-Clostridium difficile activity compared with vancomycin and daptomycin: in words, both strains of Table 3. As for the experimental part: (§1) Anti-Clostridium difficile activity of compound 1 was tested on two strains, C. difficile BAA-1382 and […], using the standard broth dilution method as described by the Clinical Laboratory Standard Institute.
(Dilution methods test growth across graded concentrations, often in twofold steps.)

Test [2] relates to Clostridium difficile ATCC43255. The test is described as above. Type of test: cell-based. As for the experimental part: as §1
Another test has as its system MRSA ATCC43300. The test can be described thus: Right-sided endocarditis rat model. Type of test: in vivo, S. aureus. To be noted: for Log10 (CFU/g) of vegetation / Vegetation weight: Sprague-Dawley rats, 1 time/day for 2 days, 3 animals. As for the experimental part: Male Sprague-Dawley rats (280-300 g) were intraperitoneally anesthetized with sodium pentobarbital solution (40 mg/kg). The rat chin area was treated with 75% alcohol. The right carotid artery was exposed through an anterior incision just slight right of midline above the calvicles. Polyethylene tubing was placed over 4-4.5 cm guided wire and passed within the right carotid artery into the left ventricle until resistance was met. Cardiac pulsations of the catheter indicated proper placement of the catheter tip at the apex of the heart. 0.5 ml inoculum of the overnight cultures (ATCC43300m 3.5×10^4 c.f.u./mL) was injected through a tail vein. After 24 hours of infection, the surviving rats were randomly divided into control group and treatment group. Compound 1 and daptomycin was administered via tail vein for 2 days (1 time/day). 24 h after the last administration, the animals were anesthetized and sacrificed. Vegetations and tissue samples were excised, weighed, homogenized, serially diluted and plated on trypticase soy agar for c.f.u titres.

Another test deals with MRSA ATCC33591. The experiment in a line: Neutropenic mouse thigh infection model. The test is classed as in vivo, S. aureus. Set-up: Δ (thigh c.f.u. versus control): unit not given here. The following applies: for Thigh colony-forming units (c.f.u): neutropenic ICR mice, thighs at 24 h, X ± SD, n = 5. As for the experimental part:
Compound 1 was tested against MRSA ATCC33591 in a neutropenic mouse thigh infection model. Both female and male ICR mice were rendered neutropenic by cyclophosphamide (three consecutive doses of 150 mg per kg delivered before infection). At day 4, bacteria were resuspended in sterile saline, 0.1 ml inoculum (MRSA ATCC33591, 5.0×10^6 c.f.u/ml) was injected into the left thighs of mice. At 2 h post-infection, mice received treatment with Compound 1 at 0.63, 1.25, 2.5, 5.0 mg per kg administered in a single dose (10 ml/kg), intravenous injection (five mice per group). At 24 h post-infection, the left thighs were aseptically removed, weighed, homogenized, serially diluted and plated on trypticase soy agar for c.f.u titres.

The mark [3] stands for this setting: Clostridium difficile ATCC43255.
Where [4] appears, read: 0.63 mg/kg single i.v. dose 2 h post-infection.
[5] abbreviates: 1.25 mg/kg single i.v. dose 2 h post-infection.
[6] abbreviates: 2.50 mg/kg single i.v. dose 2 h post-infection.
The mark [7] stands for this setting: 5.00 mg/kg single i.v. dose 2 h post-infection.

In brackets after ≈: the same amount, converted by molar mass. Like-named read-outs stand apart in the source and are kept apart here.

As to `CCCCCc1ccc(/C(C)=C/C(=O)N[C@@H](Cc2c[nH]c3ccccc23)C(=O)N[C@H](CC(N)=O)C(=O)N[C@@H](CC(=O)O)C(=O)N[C@@H]2C(=O)NCC(=O)N[C@@H](CCCN)C(=O)N[C@@H](CC(=O)O)C(=O)N[C@H](C)C(=O)N[C@@H](CC(=O)O)C(=O)NCC(=O)N[C@H](CO)C(=O)N[C@@H]([C@H](C)CC(=O)O)C(=O)N[C@@H](CC(=O)c3ccccc3N)C(=O)O[C@@H]2C)cc1` [surotomycin, reference compound], the MIC in test [1] and in test [2] (setting [3]) was 0.5 µg/mL (≈ 0.297 µM) in each case.
Turning to `CCCCCCCCCC(=O)N[C@@H](Cc1c[nH]c2ccccc12)C(=O)N[C@H](CC(N)=O)C(=O)N[C@@H](CC(=O)O)C(=O)N[C@@H]1C(=O)NCC(=O)N[C@@H](CCCN)C(=O)N[C@@H](CC(=O)O)C(=O)N[C@H](C)C(=O)N[C@@H](CC(=O)O)C(=O)NCC(=O)N[C@H](CO)C(=O)N[C@@H](C(C)CC(=O)O)C(=O)N[C@@H](CC(=O)c2ccccc2NC)C(=O)O[C@@H]1C` (some centres unmarked) [Compound 1], the MIC (with MRSA ATCC 33591; in test [1]; in test [2] (setting [3])) was 0.5 µg/mL (≈ 0.306 µM) in each case. For the same molecule, the “Δ (Log10 CFU/g of vegetation versus control)” value in the test with MRSA ATCC43300 (20 mg/kg) amounted to 1.78. In the test on MRSA ATCC43300 (20 mg/kg via tail vein), the “Log10 (CFU/g) of vegetation” value is listed as 7.53 ± 1.08 Log10 (CFU/g). Further, the Vegetation weight in the test on MRSA ATCC43300 (20 mg/kg via tail vein) came out at 0.012 ± 0.002 g. Further, the “infection of S. aureus compared with the control groups and daptomycin” value in the test with MRSA ATCC43300 (right-sided endocarditis rats) is “significantly decrease the infection of S. aureus”. The “anti-Clostridium difficile activity compared with vancomycin and daptomycin” value in test [1] is “better activities than vancomycin and daptomycin”. Also, the “Δ (thigh c.f.u. versus control)” value in the test with MRSA ATCC33591 (0.63 mg/kg) turned out to be 0.97; in the test with MRSA ATCC33591 (1.25 mg/kg), 1.77; in the test with MRSA ATCC33591 (2.50 mg/kg) it was 3.15; in the test on MRSA ATCC33591 (5.00 mg/kg), 5.18. Moreover, the “antibacterial activity compared with daptomycin” value in the test on MRSA ATCC33591 (doses of 1.25 and 2.50 mg/kg, mice with thigh infected with S. aureus) is listed as “significantly better antibacterial activity”. Moreover, the “Thigh colony-forming units (c.f.u)” value is 7.93 ± 0.85 log(CFU/thigh) with MRSA ATCC33591 (setting [4]), 7.13 ± 0.25 log(CFU/thigh) with MRSA ATCC33591 (setting [5]), 5.75 ± 0.35 log(CFU/thigh) in the test with MRSA ATCC33591 (setting [6]) and 3.72 ± 0.35 log(CFU/thigh) in the test on MRSA ATCC33591 (setting [7]).
Turning to `CCCCCCCCCC(=O)N[C@@H](Cc1c[nH]c2ccccc12)C(=O)N[C@H](CC(N)=O)C(=O)N[C@@H](CC(=O)O)C(=O)N[C@@H]1C(=O)NCC(=O)N[C@@H](CCCN)C(=O)N[C@@H](CC(=O)O)C(=O)N[C@H](C)C(=O)N[C@@H](CC(=O)O)C(=O)NCC(=O)N[C@H](CO)C(=O)N[C@@H]([C@H](C)CC(=O)O)C(=O)N[C@@H](CC(=O)c2ccccc2N)C(=O)O[C@@H]1C` [daptomycin, reference compound], the MIC (against MRSA ATCC 33591; in test [1]; in test [2] (setting [3])) was 1 µg/mL (≈ 0.617 µM) each time. Moreover, the “Δ (Log10 CFU/g of vegetation versus control)” value with MRSA ATCC43300 (40 mg/kg) was 0.73. In the test with MRSA ATCC43300 (40 mg/kg via tail vein), the “Log10 (CFU/g) of vegetation” value is 8.58 ± 0.55 Log10 (CFU/g). Also, in the test on MRSA ATCC43300 (40 mg/kg via tail vein), the Vegetation weight is reported as 0.007 ± 0.001 g. In addition, the “Δ (thigh c.f.u. versus control)” value in the test with MRSA ATCC33591 (0.63 mg/kg) was 0.88; in the test with MRSA ATCC33591 (1.25 mg/kg) it was 1.09; in the test on MRSA ATCC33591 (2.50 mg/kg), 1.97; with MRSA ATCC33591 (5.00 mg/kg), 4.97. Further, the “Thigh colony-forming units (c.f.u)” value is reported as 8.02 ± 0.48 log(CFU/thigh) in the test with MRSA ATCC33591 (setting [4]), 7.81 ± 0.37 log(CFU/thigh) in the test with MRSA ATCC33591 (setting [5]), 6.93 ± 0.57 log(CFU/thigh) in the test with MRSA ATCC33591 (setting [6]) and 3.93 ± 0.84 log(CFU/thigh) in the test on MRSA ATCC33591 (setting [7]).
On to `CN[C@H](CC(C)C)C(=O)N[C@H]1C(=O)N[C@@H](CC(N)=O)C(=O)N[C@H]2C(=O)N[C@H]3C(=O)N[C@H](C(=O)N[C@H](C(=O)O)c4cc(O)cc(O)c4-c4cc3ccc4O)[C@H](O)c3ccc(c(Cl)c3)Oc3cc2cc(c3O[C@@H]2O[C@H](CO)[C@@H](O)[C@H](O)[C@H]2O[C@H]2C[C@](C)(N)[C@H](O)[C@H](C)O2)Oc2ccc(cc2Cl)[C@H]1O` [vancomycin, reference compound], for which the MIC in test [1] (Clostridioides difficile, ATCCBAA1382, read-out: MIC) came to 1 µg/mL (≈ 0.69 µM); in test [2] (Clostridioides difficile, ATCC43255) it was 1 µg/mL (≈ 0.69 µM).
With `CCCCCc1ccc(/C(C)=C/C(=O)N[C@@H](Cc2c[nH]c3ccccc23)C(=O)N[C@H](CC(N)=O)C(=O)N[C@@H](CC(=O)O)C(=O)N[C@@H]2C(=O)NCC(=O)N[C@@H](CCCN)C(=O)N[C@@H](CC(=O)O)C(=O)N[C@H](C)C(=O)N[C@@H](CC(=O)O)C(=O)NCC(=O)N[C@H](CO)C(=O)N[C@@H](C(C)CC(=O)O)C(=O)N[C@@H](CC(=O)c3ccccc3NC)C(=O)O[C@@H]2C)cc1` (some centres unmarked) [Compound 7], the MIC in test [1] and in test [2] (setting [3]) was 0.25 µg/mL (≈ 0.148 µM) in each case. Moreover, the “anti-Clostridium difficile activity compared with vancomycin and daptomycin” value in test [1] was “better activities than vancomycin and daptomycin”.

The record behind these values is patent US11667674B2, “Antibacterial cyclic lipopeptides” (priority 2016, dated 2023).
